{
  "source": "paper PMC12025681",
  "about": "“Repositioning Fluoxetine as a TRPV3 Channel Inhibitor to Alleviate Skin Inflammation and Pruritus” (Current Issues in Molecular Biology, 2025)",
  "key": {"[1]": {"molecular_target": "T1, human TRPV3 (hTRPV3) (Homo sapiens, UniProt Q8NET8)", "T1 sequence (Q8NET8 1-790)": "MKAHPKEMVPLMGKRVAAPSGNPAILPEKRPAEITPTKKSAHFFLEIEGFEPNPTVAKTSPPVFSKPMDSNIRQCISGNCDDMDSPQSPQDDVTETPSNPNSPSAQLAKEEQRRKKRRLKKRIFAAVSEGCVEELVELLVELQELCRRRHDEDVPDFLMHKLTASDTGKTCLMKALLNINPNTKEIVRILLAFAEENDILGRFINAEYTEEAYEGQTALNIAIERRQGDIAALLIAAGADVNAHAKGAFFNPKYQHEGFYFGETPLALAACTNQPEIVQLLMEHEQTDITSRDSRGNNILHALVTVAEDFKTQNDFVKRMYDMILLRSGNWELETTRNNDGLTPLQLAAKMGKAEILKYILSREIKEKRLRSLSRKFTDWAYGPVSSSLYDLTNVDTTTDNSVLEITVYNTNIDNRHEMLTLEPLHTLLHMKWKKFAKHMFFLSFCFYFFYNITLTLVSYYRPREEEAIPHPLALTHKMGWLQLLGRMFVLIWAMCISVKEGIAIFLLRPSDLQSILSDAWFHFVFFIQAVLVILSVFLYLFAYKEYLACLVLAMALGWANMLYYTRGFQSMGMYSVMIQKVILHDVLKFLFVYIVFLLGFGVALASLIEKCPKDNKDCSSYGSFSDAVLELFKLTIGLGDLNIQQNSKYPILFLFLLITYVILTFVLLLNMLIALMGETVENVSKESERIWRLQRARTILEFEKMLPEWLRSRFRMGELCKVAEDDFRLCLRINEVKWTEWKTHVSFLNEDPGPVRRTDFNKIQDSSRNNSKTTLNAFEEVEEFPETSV", "assay": "whole-cell patch clamp and inside-out single-channel recording in transfected HEK293T cells (2-APB-evoked currents)", "type": "cell-based"}, "[2]": {"molecular_target": "TRPM8 (hTRPM8) (Homo sapiens, UniProt Q7Z2W7)", "sequence (Q7Z2W7 whole entry)": "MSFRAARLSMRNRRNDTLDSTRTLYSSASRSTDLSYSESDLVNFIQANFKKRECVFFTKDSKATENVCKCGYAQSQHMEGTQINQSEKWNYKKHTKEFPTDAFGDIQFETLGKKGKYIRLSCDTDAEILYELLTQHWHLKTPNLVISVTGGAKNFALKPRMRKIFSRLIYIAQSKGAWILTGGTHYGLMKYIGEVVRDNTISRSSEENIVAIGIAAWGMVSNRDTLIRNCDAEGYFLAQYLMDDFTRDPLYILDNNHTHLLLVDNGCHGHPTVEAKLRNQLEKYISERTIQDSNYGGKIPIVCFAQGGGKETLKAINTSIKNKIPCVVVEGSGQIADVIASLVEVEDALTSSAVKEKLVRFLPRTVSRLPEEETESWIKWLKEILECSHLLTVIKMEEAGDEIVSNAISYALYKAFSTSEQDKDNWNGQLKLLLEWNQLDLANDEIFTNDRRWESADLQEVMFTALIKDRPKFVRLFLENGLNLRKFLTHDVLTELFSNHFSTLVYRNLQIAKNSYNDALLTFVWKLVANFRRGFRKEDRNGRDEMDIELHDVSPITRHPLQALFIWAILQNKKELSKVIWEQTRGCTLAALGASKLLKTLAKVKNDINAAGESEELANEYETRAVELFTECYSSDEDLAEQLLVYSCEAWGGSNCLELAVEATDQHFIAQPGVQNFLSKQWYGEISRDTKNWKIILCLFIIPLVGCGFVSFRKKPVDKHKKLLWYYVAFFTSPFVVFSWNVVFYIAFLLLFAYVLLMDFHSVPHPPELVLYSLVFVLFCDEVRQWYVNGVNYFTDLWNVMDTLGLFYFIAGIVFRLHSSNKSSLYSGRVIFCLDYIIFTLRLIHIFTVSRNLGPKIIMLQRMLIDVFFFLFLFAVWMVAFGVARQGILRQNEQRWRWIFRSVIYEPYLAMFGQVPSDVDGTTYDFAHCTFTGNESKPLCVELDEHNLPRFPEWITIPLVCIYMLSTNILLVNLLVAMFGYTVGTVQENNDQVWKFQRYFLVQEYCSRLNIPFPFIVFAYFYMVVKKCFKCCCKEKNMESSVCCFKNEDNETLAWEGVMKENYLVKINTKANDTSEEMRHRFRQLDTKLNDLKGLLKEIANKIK", "assay": "whole-cell patch clamp in transfected HEK293T cells (menthol-evoked currents)", "type": "cell-based"}},
  "data": [
    {"smiles": "CNCCC(Oc1ccc(C(F)(F)F)cc1)c1ccccc1", "note": "(centres unmarked) [FLX, Fluoxetine]", "values": [
      {"measurement": "IC50", "setting": "[1]", "result": "10.2 ± 2.34", "unit": "µM"},
      {"measurement": "IC50", "setting": "[2]", "result": "20 ± 3.3", "unit": "µM"}
    ]}
  ]
}
